In one assay the test system is C-telopeptides (C-Tx). The conditions noted are these: alendronate injection, horses confined to stall rest for 56 days, versus saline. An excerpt: (§1) Bone metabolism is monitored using standard techniques, i.e. serum assays to determine levels of markers of bone turnover, bone resorption and bone formation and ultrasound is used to assess changes in bone density.
(§2) Materials and Methods: Sixteen healthy adult thoroughbred horses (eight mares and eight male castrates) which had previously been running at pasture for at least 4 months are used.
(§3) The horses are randomly allocated to 4 treatment groups of four horses, each containing two mares and two male castrates. Serum samples are collected and ultrasound measurements are taken on three occasions directly before commencement of stall rest. Assays are conducted on the serum samples to determine pre-confinement levels of C-telopeptides (C-Tx; a collagen breakdown product that is a marker of bone resorption); osteocalcin (a marker of bone turnover) and bone specific alkaline phosphatase (a marker of bone formation). Ultrasound is used to measure the speed of transmission of sound waves through the bone.
(§4) Stall rest is commenced the day of first treatment. Serum samples are taken twice weekly and ultrasound measurements are taken each 14 days for the 56 days of the study to monitor changes in bone metabolism markers and in bone density relative to pre-confinement values. At the end of the study the horses are returned to the pasture.

The test system of assay [1] is bone specific alkaline phosphatase. The following applies: Groups 2-4, i.v., 56 days stall rest; also reduced in placebo.
Excerpt: as §1, §2, §3, §4

As for `NCCCC(O)(P(=O)(O)O)P(=O)(O)O` [alendronate, 4-amino-1-hydroxybutylidene-1,1-bisphosphonic acid monosodium trihydrate], the “bone resorption (result in words)” value with C-telopeptides (C-Tx) is on record as “suppressed bone resorption”. In addition, the “marker for bone formation (bone specific alkaline phosphatase)” value in assay [1] is “reduced”.

The values are drawn from patent US20040038944A1, “Compositions and methods of preventing or reducing the risk or incidence of skeletal injuries in horses” (Merck & Co., Inc., priority 2000, published 2004).
